This note sets out measurements from PMC9122598, “NASP maintains histone H3–H4 homeostasis through two distinct H3 binding modes” (Nucleic Acids Research, 2022).

Common to all, as to assay type: cell-based, human
In assay [1] the test system is HCT116 wt and NASP-dTAG cells. Briefly: Cell cycle distribution (high-content microscopy, EdU). As to conditions: 5 μM dTAG-13, 48 h; mean n=3; ns = P>0.05. How it is done:
HCTT116 wt and NASP-dTAG cells were seeded at a density of 3000 cells per well in 96 well plates (6055300, Cell carrier) and treated with either dTAG-13 (5 μM, 48 hours) or DMSO (0.2%, 48 hours). Before fixation, newly replicated DNA was labelled with EdU (20 mins, 10 μM) at 37°C. Cells were washed in ice-cold PBS, fixed (4% paraformaldehyde, 15 mins, 4°C) and washes twice in ice cold PBS. EdU staining followed the Click-iT plus Alexa647-picolyl azide protocol (Thermo Scientific) and DNA was stained with DAPI (4′,6-diamidino-2-phenylindole). Images were acquired on an Olympus ScanR high-content microscope and analysed with ScanR analysis software. Cell cycle gates were defined using mean EdU and total DAPI intensities.

The test system of assay [2] is soluble histone H3–H4 pool. Briefly: Soluble histone pool in HCT116 NASP-dTAG cells (western blot of soluble extracts). The conditions noted are these: 5 μM dTAG-13 48 h, complementation with DOX-induced sNASP. How it is done: Unless stated otherwise cells were grown in DMEM with Glutamax (35050061, Gibco), 10% FBS (12389802, Hyclone) and 1% penicillin/streptomycin (15140122, Gibco) at 37°C with 5% CO2. HeLa S3 and HCT116 pLVX-TetOne-Puro cell lines were grown under Puromycin selection (1 μg/ml, P8833, Sigma). In Hela S3 and HCT116 pLVX-TetOne-Puro, the expression of sNASP-TwinStrep-HA, referred as sNASP-Strep-HA above, wt and mutants was induced by treatment with 2 μg/ml Doxycycline (631311, Clontech) for 24–48 hours. HCT116 NASP-FKBP12^F36V (NASP-dTAG) were treated with 0.2% DMSO (67–68-5, Sigma) or 5 μM dTAG-13 (6605, Tocris) for the indicated times, to induce the degradation of endogenous NASP. […] 24 hours after seeding, cells were treated with either 0.2% DMSO or 5 μM dTAG-13 for 48 hours, and cell viability was quantified with CellTiter-Blue® Cell Viability Assay (G8080, Promega), according to the manufacturer's instructions. […]
Protein concentrations were measured using Pierce™ 660 nm Protein Assay Reagent (Thermo Scientific) or the Bradford protein assay (Bio-Rad). […] Western blots from three independent biological replicates were quantified using the software ImageJ, version 1.0.

Assay [3] deals with HCT116 wt and NASP-dTAG cells. Briefly: Cell viability (CellTiter-Blue). The conditions noted are these: 5 μM dTAG-13, 48 h; mean n=3; ns = P>0.05. How it is done: Unless stated otherwise cells were grown in DMEM with Glutamax (35050061, Gibco), 10% FBS (12389802, Hyclone) and 1% penicillin/streptomycin (15140122, Gibco) at 37°C with 5% CO2. HeLa S3 and HCT116 pLVX-TetOne-Puro cell lines were grown under Puromycin selection (1 μg/ml, P8833, Sigma). In Hela S3 and HCT116 pLVX-TetOne-Puro, the expression of sNASP-TwinStrep-HA, referred as sNASP-Strep-HA above, wt and mutants was induced by treatment with 2 μg/ml Doxycycline (631311, Clontech) for 24–48 hours. HCT116 NASP-FKBP12^F36V (NASP-dTAG) were treated with 0.2% DMSO (67–68-5, Sigma) or 5 μM dTAG-13 (6605, Tocris) for the indicated times, to induce the degradation of endogenous NASP. In the complementation experiments, HCT116 cells were simultaneously treated with 2 μg/ml Doxycycline and either 0.2% DMSO or 5 μM dTAG-13 for 48 hours, to ensure a synchronized degradation of the endogenous protein and expression of sNASP-Strep-HA wt or mutants. For cell viability experiments, HCT116 cells were seeded at low confluency in a 24 well plate. 24 hours after seeding, cells were treated with either 0.2% DMSO or 5 μM dTAG-13 for 48 hours, and cell viability was quantified with CellTiter-Blue® Cell Viability Assay (G8080, Promega), according to the manufacturer's instructions.

The subject of assay [4] is endogenous s- and t-NASP (NASP-FKBP12^F36V). Briefly: Depletion of endogenous NASP in NASP-dTAG cells (western blot, immunofluorescence). As to conditions: HCT116 NASP-dTAG, 5 μM dTAG-13, 48 h. How it is done:
Unless stated otherwise cells were grown in DMEM with Glutamax (35050061, Gibco), 10% FBS (12389802, Hyclone) and 1% penicillin/streptomycin (15140122, Gibco) at 37°C with 5% CO2. HeLa S3 and HCT116 pLVX-TetOne-Puro cell lines were grown under Puromycin selection (1 μg/ml, P8833, Sigma). In Hela S3 and HCT116 pLVX-TetOne-Puro, the expression of sNASP-TwinStrep-HA, referred as sNASP-Strep-HA above, wt and mutants was induced by treatment with 2 μg/ml Doxycycline (631311, Clontech) for 24–48 hours. HCT116 NASP-FKBP12^F36V (NASP-dTAG) were treated with 0.2% DMSO (67–68-5, Sigma) or 5 μM dTAG-13 (6605, Tocris) for the indicated times, to induce the degradation of endogenous NASP. […] 24 hours after seeding, cells were treated with either 0.2% DMSO or 5 μM dTAG-13 for 48 hours, and cell viability was quantified with CellTiter-Blue® Cell Viability Assay (G8080, Promega), according to the manufacturer's instructions.
Protein concentrations were measured using Pierce™ 660 nm Protein Assay Reagent (Thermo Scientific) or the Bradford protein assay (Bio-Rad). […] Western blots from three independent biological replicates were quantified using the software ImageJ, version 1.0. […]

Assay [5] has as its system endogenous s- and t-NASP, histone H3. Briefly: Co-immunoprecipitation of sNASP-FLAG-Myc from HeLa S3. As to conditions: HeLa S3, transient transfection.
Method: Protein concentrations were measured using Pierce™ 660 nm Protein Assay Reagent (Thermo Scientific) or the Bradford protein assay (Bio-Rad). For immunoprecipitation, 2–3 mg of sNASP-FLAG-myc and sNASP-Strep-HA extracts were incubated for 3 hours at 4°C degrees with 50 μl of anti-Flag M2 (A2220, Sigma) or Anti-TwinStrep Mag-Strep beads (2–4090-002, Iba). After incubation, the beads were washed five times in ice-cold wash buffer (150 mM NaCl, 0.02% Nonidet P40, 50 mM Tris-HCl pH 7.6, 0.1 mM EDTA, 5% glycerol). Bound proteins were eluted with either Laemmli sample buffer 1X (LSB 4X: Tris-HCl (200 mM, pH 6.8), SDS 4%, glycerol (40%), DTT (100 mM)) or biotin elution buffer 1X (BXT buffer, 2–1042-025, Iba), respectively. Western blotting was performed as described previously ([11]). Western blots from three independent biological replicates were quantified using the software ImageJ, version 1.0.

Entries after “also recorded” stand apart in the source; their conditions may differ.

`CC[C@H](C(=O)N1CCCC[C@H]1C(=O)O[C@H](CCc1ccc(OC)c(OC)c1)c1ccccc1OCC(=O)NCCCCCCOc1cccc2c1C(=O)N(C1CCC(=O)NC1=O)C2=O)c1cc(OC)c(OC)c(OC)c1` (some centres unmarked) [dTAG-13]: the Cell cycle distribution result in assay [1] is “non-significant; also recorded: without dramatic effects on cell cycle progression and cell proliferation”. Also, the “Level of soluble histones (H3, H4, H4K5ac)” value in assay [2] is reported as “reduced the pool of soluble histone H3–H4”. In addition, in assay [3], the “Cell viability relative to DMSO” value is “non-significant; also recorded: without dramatic effects on cell cycle progression and cell proliferation”. In assay [4], the “Depletion of endogenous NASP” value was “efficient and stable depletion of endogenous s- and t-NASP isoforms”.

As to “sNASP 6E mutant: sNASP-FLAG-Myc V265E I272E L282E V286E I300E L307E”, in assay [5], the “Pull down of endogenous s- and t-NASP” value is “impaired”; the “Pull down of histone H3” value is “efficiently pulled down histone H3”.

Take “sNASP wild type (wt): epitope-tagged sNASP wild type (FLAG-Myc or Strep-HA)”: in assay [2], the “Level of soluble histones (H3, H4, H4K5ac)” value is given as “rescued the soluble histone pool”. In addition, the “Pull down of endogenous s- and t-NASP” value in assay [5] is “pulled down both endogenous s- and t- NASP”.
